Data taken from ChEMBL document CHEMBL1158438, “Discovery and structure-guided drug design of inhibitors of 11beta-hydroxysteroid-dehydrogenase type I based on a spiro-carboxamide scaffold” (Bioorg Med Chem Lett, 2009).

Legend:
[1] = molecular target: 11-beta-hydroxysteroid dehydrogenase 1 (Mus musculus, UniProt P50172); experiment: Inhibition of 11beta-HSD1 in mouse liver microsomes fraction; set-up: species or system Microsome
[2] = molecular target: T1, 11-beta-hydroxysteroid dehydrogenase type 2 (Homo sapiens, UniProt P80365); experiment: Inhibition of human recombinant 11beta-HSD2 expressed in Escherichia coli by HTRF assay
T1 sequence (P80365 whole entry): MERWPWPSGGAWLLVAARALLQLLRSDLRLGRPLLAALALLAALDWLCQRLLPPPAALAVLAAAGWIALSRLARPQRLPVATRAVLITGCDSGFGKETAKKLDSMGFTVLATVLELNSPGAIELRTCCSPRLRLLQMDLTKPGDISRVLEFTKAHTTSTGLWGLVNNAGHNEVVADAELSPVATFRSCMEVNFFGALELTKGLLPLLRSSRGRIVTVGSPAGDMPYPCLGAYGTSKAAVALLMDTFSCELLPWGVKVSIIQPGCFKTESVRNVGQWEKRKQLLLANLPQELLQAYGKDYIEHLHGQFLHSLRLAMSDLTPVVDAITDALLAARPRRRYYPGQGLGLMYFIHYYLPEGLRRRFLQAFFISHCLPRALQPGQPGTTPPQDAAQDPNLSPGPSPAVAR

[3] = molecular target: T2, 11-beta-hydroxysteroid dehydrogenase 1 (Homo sapiens, UniProt P28845)
Target sequence in this assay (P28845 whole entry, looked up): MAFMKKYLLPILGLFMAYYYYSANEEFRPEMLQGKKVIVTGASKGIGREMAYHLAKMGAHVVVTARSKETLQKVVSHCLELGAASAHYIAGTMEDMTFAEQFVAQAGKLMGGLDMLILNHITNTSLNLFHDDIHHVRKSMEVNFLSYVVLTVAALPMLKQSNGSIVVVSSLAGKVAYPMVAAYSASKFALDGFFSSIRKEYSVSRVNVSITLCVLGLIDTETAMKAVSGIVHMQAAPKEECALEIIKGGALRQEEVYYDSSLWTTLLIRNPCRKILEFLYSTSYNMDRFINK

[4] = molecular target: T2, 11-beta-hydroxysteroid dehydrogenase 1; experiment: Inhibition of human recombinant 11beta-HSD1 expressed in Escherichia coli by HTRF assay
Target sequence in this assay (P28845 whole entry): as the sequence (P28845 whole entry, looked up) above

[5] = species on record: Homo sapiens; experiment: Selectivity ratio, IC50 for human recombinant 11beta-HSD2 to IC50 for human recombinant 11beta-HSD1
[6] = molecular target: T2, 11-beta-hydroxysteroid dehydrogenase 1; experiment: Inhibition of human 11beta-HSD1

11-beta-hydroxysteroid dehydrogenase 1 (Mus musculus, UniProt P50172), sequence (P50172 whole entry): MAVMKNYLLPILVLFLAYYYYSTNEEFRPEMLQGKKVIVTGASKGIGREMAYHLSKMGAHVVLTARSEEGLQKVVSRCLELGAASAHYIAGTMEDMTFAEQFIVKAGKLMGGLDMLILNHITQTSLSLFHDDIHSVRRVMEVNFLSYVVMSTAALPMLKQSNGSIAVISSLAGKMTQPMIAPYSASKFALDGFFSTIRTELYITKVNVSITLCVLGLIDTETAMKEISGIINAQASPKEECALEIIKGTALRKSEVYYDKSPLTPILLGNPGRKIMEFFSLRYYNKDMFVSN

Row | SMILES | IC50 [1] | IC50 [2] | BEI [3] | IC50 [4] | Ratio IC50 [5] | BEI [6] | IC50 [6]
1 | O=C(N1CCC2(CCCCC2)C1)C1(c2ccccc2)CC1 | 377 nM | > 100000 nM | 32.7 kDa-1 | 0.5 nM | > 200000 |  | 
2 | O=C(N1CCC2(CCc3ccccc32)C1)C1(c2ccc(Cl)cc2)CC1 (stereo not given) | 2600 nM | > 100000 nM | 21.6 kDa-1 |  |  |  | 
3 | O=C1CC2(CCN(C(=O)C3(c4ccccc4)CC3)CC2)Oc2ccc(F)cc21 |  |  |  |  |  | 14.8 kDa-1 | 2500 nM

The next lines start with the values.

Row | IC50 [1] | IC50 [2] | BEI [3] | IC50 [4] | Ratio IC50 [5] | BEI [6] | IC50 [6] | SMILES
4 | 3400 nM | > 100000 nM | 25.9 kDa-1 | 6 nM | > 16000 |  |  | O=C(N1CCC2(CCCCC2)C1)C1(c2ccc(Cl)cc2)CC1
5 | 3400 nM | > 100000 nM | 20.9 kDa-1 | 22 nM | > 4500 |  |  | O=C(N1CCC2(CCCc3ccccc32)C1)C1(c2ccc(Cl)cc2)CC1 (stereo not given)
